Entries after “also recorded” stand apart in the source; their conditions may differ.
How the values were obtained:
[1] = target: T1, AKAP-Lbc/DHPH-induced RhoA activation (Homo sapiens, UniProt P61586); experiment: Guanine nucleotide exchange (GEF) assay with mant-GTP (screen and secondary assays); format: biochemical
T1 construct: AKAP-Lbc/DHPH (aa 1923–2336 of human AKAP-Lbc; NP_006729.4, NCBI); made in house; host or cells: E. coli Rosetta (DE3)
Procedure: Fluorescence was recorded for 15 min in a 384-well plate in a microplate reader (Tecan, Safire; Durham, US) at 440 nm (360 nm excitation wavelength).
For all dispensing and washing steps an EL406 washer/dispenser combination (BioTek Instruments, Bad Friedrichshall, Germany) was used. The screen was performed in a 384-well plate format. […] Z score describes the distance of a sample signal to the mean of all other samples on the plate in units of standard deviation. […] Compound identity and purity of samples used in this secondary screen were validated by mass spectrometric analysis.
The DHPH domain of the RhoA-specific guanine nucleotide exchange factor (GEF) AKAP-Lbc and RhoA were generated as recombinant proteins. The DHPH domain-catalyzed exchange of GDP for the fluorescent mant-GTP was monitored at the emission wavelength of RhoA-bound mant-GTP at 440 nm. (B) The fluorescence signal intensity changes were determined for all samples including positive and negative controls and percent inhibitions calculated based on the controls.

[2] = test system: AKAP-Lbc-mediated activation of RhoA in HEK293 cells; experiment: SRE luciferase reporter assay, AKAP-Lbc expressed; format: cell-based, human; conditions: Scaff10
Procedure: Luciferase reporter gene assays were performed with the Dual Luciferase Reporter Assay System (Promega) according to manufactures protocol and as previously reported. In brief, HEK293 cells were seeded and co-transfected with the indicated plasmids together with pSRE.L reporter plasmid encoding firefly luciferase (kindly provided from Dr J. Mao and Dr. D. Wu, Rochester, NY) and pRL-TK control vector (Promega, Mannheim, Germany) encoding renilla luciferase. The transfected cells were further cultured in DMEM with 0.5% FCS for 24 h, lysed with passive lysis buffer (Promega). Luciferase activities was measured an Envision Instrument (Perkin Elmer, Rodgau, Germany) in white 96-well plates. […] In Western blots, the protein was detected with primary polyclonal antibody (rabbit; Gramsch, 1:1000). […] AKAP-Lbc was detected with a specific anti-AKAP-Lbc antibody (Abcam; #ab99377; 1:1000). […]
Fig 7 Scaff10-8 inhibits the AKAP-Lbc-mediated activation of RhoA in cells. […] Statistically significant differences were determined applying one-way ANOVA with posthoc Bonferroni. […]
in luciferase activity induced by other GEFs. n=3; statistically significant differences were not found, as confirmed by statistical analysis using ANOVA. […] The fraction of active RhoA was determined using Rhotekin pulldown assays as described. […]

[3] = target: T2, GST-RhoA (F25N), GDP- or GTPγS-bound (Homo sapiens, UniProt P61586, F25N); experiment: Isothermal titration calorimetry (ITC) with GST-RhoA; format: binding
T2 construct: made in house
Procedure: ITC measurements were essentially carried out as previously described. The stabilizing RhoA mutant F25N [41] was purified as a GST-RhoA fusion in its GDP-bound form (final gel filtration purification step in 20 mM HEPES, pH 7.5, 150 mM NaCl, 2 mM DTT, 50 μM GDP). In order to exchange GDP against GTPγS, GST-RhoA loaded with GDP was incubated for 20 min in ITC nucleotide exchange buffer (50 mM HEPES, pH 7.5, 20 mM EDTA) at 25°C followed by three dilution and concentration steps in Amicon tubes (10,000 MWCO) using ITC dialysis buffer (50 mM HEPES, pH 7.4, 150 mM NaCl, 5 mM MgCl2, 2 mM β-mercaptoethanol). The nucleotide-loading state was confirmed by HPLC. All proteins used in ITC measurements were dialyzed overnight against ITC dialysis buffer. Protein concentrations were determined with NanoDrop ND-1000. GDP or GTPγS (final concentration 2 mM) and DMSO (2%) were added to the proteins prior to the ITC measurements. Scaff10-8 was dissolved in the same buffer (including 2% DMSO and 2 mM GDP or GTPγS). ITC measurements were performed on a VP-ITC (GE Healthcare, München, DE) at 15°C. Titrations were conducted using 14.8 μM Scaff10-8 in the cell and 235 μM (GST control), 222 μM (GST-RhoA, GDP-bound) or 210 μM (GST-RhoA, GTPγS-bound) in the syringe. The cell was stirred at 351 rpm and a total of 27 x 10 μl injections were added to the cell, separated by 240 s of equilibration. The data were fitted using the Microcal Origin software (version 7.0) and a one-site binding model. We consistently observed a binding number close to N = 0.5 (RhoA/Scaff10-8). This observation may be due to the binding of two molecules of Scaff10-8 per one molecule of GST-RhoA for both the GDP-bound and GTPγS-bound form of GST-RhoA, or due to some inaccuracy in the determination of protein or compound concentrations. The data were thus fitted using a fixed binding number of N = 0.5.

T2 sequence (P61586 whole entry F25N): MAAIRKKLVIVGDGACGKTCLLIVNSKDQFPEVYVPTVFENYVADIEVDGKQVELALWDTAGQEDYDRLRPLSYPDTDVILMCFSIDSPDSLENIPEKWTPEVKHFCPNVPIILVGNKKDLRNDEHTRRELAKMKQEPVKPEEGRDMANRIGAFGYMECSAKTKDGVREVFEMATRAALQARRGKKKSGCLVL
T1 sequence (P61586 whole entry, the tested form may be a part): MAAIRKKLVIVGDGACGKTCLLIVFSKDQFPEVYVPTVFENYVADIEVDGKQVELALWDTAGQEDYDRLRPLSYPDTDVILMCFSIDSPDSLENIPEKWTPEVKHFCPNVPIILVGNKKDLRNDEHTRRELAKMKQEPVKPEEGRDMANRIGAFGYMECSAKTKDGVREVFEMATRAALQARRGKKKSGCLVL

Row | Structure (SMILES) | IC50 [1] [µM] | ResidualPercentActivity ([1]; Suppl. Tab. 2, screening data) [%] | z_score ([1]; Suppl. Tab. 2, screening data) | AKAP-Lbc-mediated activation of RhoA (SRE luciferase activity) [2] | KD for GST-RhoA loaded with GDP ([3]; 15°C, 2 mM GDP, fixed N = 0.5) [µM] | KD for GST-RhoA loaded with GTPγS ([3]; 15°C, 2 mM GTPγS, fixed N = 0.5) [µM] | binding number N (RhoA/Scaff10-8) ([3]; GDP- and GTPγS-bound forms)
1 | COc1ccc(-c2coc3cc4oc(=O)c(C)c(C)c4cc23)cc1 [Scaff10, 3-(4-Methoxyphenyl)-5,6-dimethyl-furo[3,2-g]chromen-7-one] | 26 | -9.0 | -9.0 | selectively inhibited; also recorded: concentration-dependently inhibits | – | – | –
2 | COc1ccc(-c2coc3cc4oc(=O)c(CCC(=O)O)c(C)c4cc23)cc1 [Scaff10-8, 3-[3-(4-Methoxyphenyl)-5-methyl-7-oxo-furo[3,2-g]chromen-6-yl] propanoic acid] | – | – | – | – | 20 ± 1 | 38 ± 4 | ~0.5
